From US7045495B2 (Sloan-Kettering Institute for Cancer Research, priority 1996, dated 2006)

How the values were obtained:
SK-GT-2 cells = test: apoptosis by QFM, Hoechst-33258 staining; format: cell-based, human; conditions: 24 hours
Experimental: (i) Safingol enhances MMC-induced apoptosis: SK-GT-5 cells, which have a mutated p53 gene (9), were treated with safingol in the presence or absence of MMC for 24 hours. For determination of apoptosis SK-GT-5 cells were treated according to one of several conditions: (i) no drug (control) for 24 hours, (ii) Safingol alone (50 μM) for 24 hours. (This concentration represents the highest non-toxic dose of safingol for the SK-GT-5 cells, as determined by cell proliferation studies, and slightly exceeds the safingol concentration (30 μM) which inhibits PKC enzyme activity by 50% in vitro.), (iii) Mitomycin-C alone (2.5 μg/ml) for 24 hours, (iv) Mitomycin-C alone (5 μg/ml) for 24 hours, (v) the combination of safingol (50 μM) and Mitomycin-C (2.5 μg/ml) for 24 hours, (vi) the combination of safingol (50 μM) and Mitomycin-C (5 μg/ml) for 24 hours. Apoptosis was measured by quantitative fluorescent microscopy (QFM) of nuclear changes induced by apoptosis, as determined by bisbenzimide trihydrochloride (Hoescht-33258) staining of condensed nuclear chromatin (3,5). For the QFM duplicate samples of 500 cells each were counted and scored for the incidence of apoptotic chromatin condensation using an Olympus BH-2 fluorescence microscope.
(ii) UCN-01 enhances MMC-induced apoptosis: SK-GT-2 cells, which have a mutation in p53, were treated with increasing concentrations of UCN-01 in the presence or absence of a fixed dose of MMC for 24 hours.
Both UCN-01 and Flavo inhibit PKC. These drugs are cytotoxic to tumor cells and have been reported to induce apoptosis. […] In order to test this hypothesis we elected to treat gastric cancer cells, MKN-74 and SK-GT-2, as well as breast cancer cells, MDA-MB-468, with UCN-01 (7.5 to 10 μM) or Flavo (300 nM) in the presence or absence of MMC (5 μg/ml) or Taxol (50 μM) for 24 hours. Induction of apoptosis was estimated by counting the frequency of condensed nuclear chromatin with Hoechst-33258 stain in duplicate samples of 400 cells.

NU-GC-4 = test: clonogenic assay, resistance relative to MKN-74; format: cell-based, human; conditions: 10 μg/ml CDDP, 5 μg/ml MMC
From the text: (§1) The basis of drug resistance in these disease has not been well defined. […] For gastric cancer applicants have been successful in establishing five long-term cell lines, SK-GT-1, SK-GT-2, SK-GT-4, SK-GT-5, and SK-GT-6 for Sloan Kettering Gastric Tumor (12,13) none of which express P-glycoprotein (14). Yet, all these tumors are resistant to chemotherapy and to the induction of apoptosis. Applicants have reported that the relative sensitivity of these gastric cancer cells to chemotherapy is influenced by their p53 status (14).

SK-GT-2 = test: clonogenic assay, resistance relative to MKN-74; format: cell-based, human; conditions: 10 μg/ml CDDP, 5 μg/ml MMC, 50 FM 5-FU
From the text: as §1

SK-GT-1 = test: clonogenic assay, resistance relative to MKN-74; format: cell-based, human; conditions: clonogenic survival ratio, 10 μg/ml CDDP, 5 μg/ml MMC, 50 FM 5-FU
From the text: as §1

MKN-74 [1] = test: clonogenic assay, resistance relative to MKN-74; format: cell-based, human; conditions: MKN-74 (reference); 10 μg/ml CDDP, 5 μg/ml MMC, 50 FM 5-FU
From the text: as §1

SK-GT-5 = test: clonogenic assay, resistance relative to MKN-74; format: cell-based, human; conditions: 10 μg/ml CDDP, 5 μg/ml MMC, 50 FM 5-FU
From the text: as §1

MKN-74 [2] = test: cytotoxicity, Alamar Blue Assay; format: cell-based, human; conditions: 24 hours; RO 32-2241 10^-6 M, Mitomycin-C 5 μg/ml
From the text: It has been shown that PKC activity can act as an antagonist to apoptosis, whereas PKC inhibition can promote apoptosis. These observations imply that one function of PKC stimulated processes is to inhibit the induction of programmed cell death. Thus, anti-tumor effects of chemotherapeutic agents may be potentiated by PKC inhibitors that contribute to the induction of apoptosis after drug-induced damage. In order to test this hypothesis we have used the human gastric cancer cell MKN-74 to determine whether RO 32-2241 would enhance the cytotoxic effect of the chemotherapeutic agent Mitomycin-C (MMC). Cytotoxicity was measured and quantified using the Alamar Blue Assay. Cells were treated according to one of four conditions: (i) no drug (control) for 24 hours, (ii) RO 32-2241 alone at 10–6 M, (iii) Mitomycin-C alone at 5 μg/ml for 24 hours, (iv) the combination of RO 32-2241 (10^-6 M) and Mitomycin-C (5 μg/ml) for 24 hours. The results are summarized below for percent survival: […]

16C mammary carcinoma = conditions: safingol 5 to 20 mg/kg; cited from earlier work
[3] = preclinical pharmacology of safingol; conditions: mouse, in vivo, mice
Experimental: Based on the mice studies applicants have predicted that in order to achieve meaningful chemopotentiation with either DOX or cisplatin applicants need to deliver the equivalent mouse dose of 5 mg/kg to 20 mg/kg safingol. […] From the pharmacology data obtained thus far from the patients treated with escalating doses of safingol and 45 mg/m^2 of DOX, it appears that applicants are approaching these target levels.

[4] = intravenous safingol in emulsion; cited from earlier work
[5] = phase I trial safingol with doxorubicin: plasma pharmacokinetics; format: in vivo, patients; conditions: human, intravenous
Experimental: (iii) Safingol pharmacokinetics appear linear with increasing dose: The pharmacokinetics of patients treated with safingol and DOX at 45 mg/m^2 is shown below: […]

creatinine phosphokinase = conditions: read-out: concentration for 50% inhibition of creatinine phosphokinase; safingol; cited from earlier work

Which results are given for `CO[C@@]12[C@H](COC(N)=O)C3=C(C(=O)C(C)=C(N)C3=O)N1C[C@@H]1N[C@@H]12` [MMC, Mitomycin-C]?
percentage of cells undergoing apoptosis (QFM) (SK-GT-2 cells; MMC alone 5.0 μg/ml): 7%±3%; induction of apoptosis (condensed chromatin, 400 cells) (SK-GT-2 cells; UCN-01 7.5 to 10 μM, MMC 5 μg/ml): 11% ± 2; Fold-Increase in Resistance Relative to MKN-74 (p53wt) (NU-GC-4): 10X; Fold-Increase in Resistance Relative to MKN-74 (p53wt) (SK-GT-2): 106X; Fold-Increase in Resistance Relative to MKN-74 (p53wt) (SK-GT-1): 166X; Fold-Increase in Resistance Relative to MKN-74 (p53wt) (MKN-74 [1]): 1X; Fold-Increase in Resistance Relative to MKN-74 (p53wt) (SK-GT-5): 55X; Percent survival (MKN-74 [2]): 87%

Which “effect on tumor cell growth, single agent” value (16C mammary carcinoma) does the source give for `CCCCCCCCCCCCCCC[C@H](O)[C@@H](N)CO` [safingol, L-threo-dihydrosphingosine] here?
The value was “no effect on inhibiting tumor cell growth”.

And the AUC ([3]; 5 mg/kg safingol)?
Its AUC is 668 ng·h/mL.

And the Cmax ([3]; 5 mg/kg safingol)?
The Cmax was 1800 ng/mL.

And the AUC ([3]; 20 mg/kg safingol)?
Its AUC is 2700 ng·h/mL.

What about the Cmax ([3]; 20 mg/kg safingol) of the same compound?
Its Cmax is 7020 ng/mL.

What about the “clinical pathology and histopathology findings” value [4] of the same compound?
The value was “venous irritation and transient intravascular hemolysis”.

And the Cmax ([5]; 15 mg/m2, dose level 15 mg/m^2)?
The Cmax was 199 ng/mL.

What about the AUC ([5]; 15 mg/m2, dose level 15 mg/m^2, read-out: AUC without DOX (first column)) of the same compound?
The AUC was 168 ng·h/mL.

What about the AUC ([5]; 15 mg/m2, dose level 15 mg/m^2, read-out: AUC without DOX (second column)) of the same compound?
Its AUC is 161 ng·h/mL.

What about the Cmax ([5]; 30 mg/m2, dose level 30 mg/m^2) of the same compound?
Its Cmax is 336 ng/mL.

And the AUC ([5]; 30 mg/m2, dose level 30 mg/m^2, read-out: AUC without DOX (first column))?
Its AUC is 501 ng·h/mL.

And the AUC ([5]; 30 mg/m2, dose level 30 mg/m^2, read-out: AUC without DOX (second column))?
Its AUC is 428 ng·h/mL.

And the Cmax ([5]; 60 mg/m2, dose level 60 mg/m^2)?
The Cmax was 422 ng/mL.

What about the AUC ([5]; 60 mg/m2, dose level 60 mg/m^2, read-out: AUC without DOX (first column)) of the same compound?
The AUC was 531 ng·h/mL.

What about the AUC ([5]; 60 mg/m2, dose level 60 mg/m^2, read-out: AUC without DOX (second column)) of the same compound?
Its AUC is 501 ng·h/mL.

And the Cmax ([5]; 120 mg/m2, dose level 120 mg/m^2)?
The Cmax was 988 ng/mL.

What about the AUC ([5]; 120 mg/m2, dose level 120 mg/m^2, read-out: AUC without DOX (first column)) of the same compound?
The AUC was 1230 ng·h/mL.

What about the AUC ([5]; 120 mg/m2, dose level 120 mg/m^2, read-out: AUC without DOX (second column)) of the same compound?
The AUC was 1230 ng·h/mL.

What about the IC50 (creatinine phosphokinase) of the same compound?
The IC50 was over 218 µM.
